Results published in PMC12336439 (Archiv Der Pharmazie, 2025).
Where “and” joins values, the source holds several entries; their conditions need not be identical. Identical values can stand only once.

Tests used:
Type in all cases: binding
[1] = target: T1, USP7asoc (active site only cysteine) (Homo sapiens, UniProt Q93009, C300S/C315S/C334S/C478S/C488S/C510S); test: Differential scanning fluorimetry (DSF), melting temperature shift of USP7asoc mutant; conditions: 8 µM protein, 250 µM compound (1:31.25)
T1 construct: (208‐560, C300/315/334/448/478/510S); made in house
T1 sequence (Q93009 with tags, fused parts or gaps C300S/C315S/C334S/C478S/C488S/C510S): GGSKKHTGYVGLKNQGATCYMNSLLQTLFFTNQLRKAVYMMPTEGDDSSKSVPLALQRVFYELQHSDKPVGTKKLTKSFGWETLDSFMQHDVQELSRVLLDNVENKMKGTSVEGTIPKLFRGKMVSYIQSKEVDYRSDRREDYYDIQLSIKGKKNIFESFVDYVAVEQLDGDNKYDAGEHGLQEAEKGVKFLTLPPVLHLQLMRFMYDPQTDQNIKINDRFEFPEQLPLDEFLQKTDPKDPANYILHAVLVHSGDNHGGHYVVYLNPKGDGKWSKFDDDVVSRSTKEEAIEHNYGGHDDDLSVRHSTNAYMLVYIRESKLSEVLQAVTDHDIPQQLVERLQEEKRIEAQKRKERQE
Protocol: USP7asoc only retains the catalytic Cys223 while all the other six cysteines are mutated to serine. DSF was selected for initial assessment since it is an efficient and rapid primary screening method readily available to our lab. […] An important consideration when assessing covalent inhibitors is the time dependence of covalent target occupancy and thus potency, which is determined by the reaction kinetics of the covalent binding event. To allow for drawing conclusions on compounds with slower reaction kinetics, incubation times of 30 min, 4 h, and 24 h at 20°C were chosen for the DSF screen with USP7 (Table 1 and Figures 2 and 3). The threshold at which compounds were considered (de‐)stabilizers was defined at 0.5°C. In parallel, the intrinsic reactivity of a set of representative compounds was evaluated in a glutathione reactivity assay. […] The expression and purification of USP7 catalytic domain (USP7CD) (208‐560) and USP7asoc (active site only cysteine) by using a pET24a(+)_HLT_USP7 construct were performed as previously described. […] For the USP7asoc, six of the seven cysteines are mutated to serines (208‐560, C300/315/334/448/478/510S). All utilized protein sequences are depicted in Supporting Information S2: Table S.3.1. The melting temperatures of USP7 and USP7asoc in the presence or absence of fragments were determined by DSF on a Qiagen Rotor‐Q Model‐5‐Plex HRM real‐time PCR instrument (Qiagen, Hilden, Germany). SYPRO Orange (Life Technologies Corporation, Eugene, OR, USA) was used as a fluorescent dye at a final concentration of 5x. The protein concentration was 8 µM, and the final compound concentration was 250 µM, corresponding to a protein‐to‐compound ratio of 1:31.25. All compounds were dissolved in dimethyl sulfoxide (DMSO) and the proteins in Tris buffer (25 mM Tris pH 8.0, 150 mM NaCl, 5 mM TCEP, 5% (v/v) DMSO). All measurements were performed after 30 min, 4 h, and 24 h of incubation and at least in triplicate. DSF experiments were carried out with a constant heating rate of 270°C/h. The temperature was ramped from 28°C to 60°C–70°C with excitation and emission filters set at 470 nm and 610 nm, respectively. The melting temperatures (T m) of USP7 and USP7asoc were determined from the maxima of the first derivatives of the melting curves in OriginPro2020 (OriginLab, Northampton, MA, USA). The ∆T m was calculated by subtraction of the T m of the protein sample with pure DMSO from the T m of the protein sample mixed with compound. Error propagation was used to average multiple runs for a compound. A compound was considered to be a hit if the shift in the ∆T m was at least 0.50°C [55].

[2] = target: T2, USP7 (Homo sapiens, UniProt Q93009); test: Intact protein MS (UHPLC-ESI-MS), covalent modification of USP7; conditions: 24 h incubation at 20°C, protein-to-compound ratio 1:31.25
T2 construct: USP7 catalytic domain (USP7CD) (208‐560); made in house
T2 sequence (Q93009 with tags, fused parts or gaps): as the sequence (Q93009 with tags, fused parts or gaps C300S/C315S/C334S/C478S/C488S/C510S) above, with S96C, S111C, S130C, S274C, S284C, S306C counted along it
Protocol: The DSF results described above were validated by UHPLC‐ESI‐MS to verify possible covalent binding through a corresponding mass shift. Intact protein MS is an important screening method in irreversible‐covalent hit identification and is especially suitable for covalent fragment‐based drug discovery (FBDD). It allows for the identification of covalent binders by detecting covalent protein‐compound adducts, thus making use of the stability of the covalent bond.
USP7 was prepared in Tris buffer (25 mM Tris pH 8.0, 150 mM NaCl, 5 mM TCEP) with a protein‐to‐compound ratio of 1:31.25 and 5% (v/v) DMSO. The protein‐compound mixtures were all incubated at 20°C for 24 h on a rotating shaker. The analysis of intact protein mass was carried out using UHPLC‐ESI‐MS measurements, with data acquisition and data analysis as previously described.

[3] = target: T2, USP7; test: Differential scanning fluorimetry (DSF), melting temperature shift of USP7; conditions: 8 µM protein, 250 µM compound (1:31.25)
Text: The influence of the synthesized compounds on the melting temperature (T m) of USP7 and its mutant USP7asoc (active site only cysteine) was investigated by DSF. USP7asoc only retains the catalytic Cys223 while all the other six cysteines are mutated to serine. DSF was selected for initial assessment since it is an efficient and rapid primary screening method readily available to our lab.
An important consideration when assessing covalent inhibitors is the time dependence of covalent target occupancy and thus potency, which is determined by the reaction kinetics of the covalent binding event. To allow for drawing conclusions on compounds with slower reaction kinetics, incubation times of 30 min, 4 h, and 24 h at 20°C were chosen for the DSF screen with USP7 (Table 1 and Figures 2 and 3). The threshold at which compounds were considered (de‐)stabilizers was defined at 0.5°C. In parallel, the intrinsic reactivity of a set of representative compounds was evaluated in a glutathione reactivity assay. […] Data obtained from the GSH reactivity studies are shown in Supporting Information S2: Table S2.1 and Figures S2.1–2.3.
The melting temperatures of USP7 and USP7asoc in the presence or absence of fragments were determined by DSF on a Qiagen Rotor‐Q Model‐5‐Plex HRM real‐time PCR instrument (Qiagen, Hilden, Germany). SYPRO Orange (Life Technologies Corporation, Eugene, OR, USA) was used as a fluorescent dye at a final concentration of 5x. The protein concentration was 8 µM, and the final compound concentration was 250 µM, corresponding to a protein‐to‐compound ratio of 1:31.25. All compounds were dissolved in dimethyl sulfoxide (DMSO) and the proteins in Tris buffer (25 mM Tris pH 8.0, 150 mM NaCl, 5 mM TCEP, 5% (v/v) DMSO). All measurements were performed after 30 min, 4 h, and 24 h of incubation and at least in triplicate. DSF experiments were carried out with a constant heating rate of 270°C/h. The temperature was ramped from 28°C to 60°C–70°C with excitation and emission filters set at 470 nm and 610 nm, respectively. The melting temperatures (T m) of USP7 and USP7asoc were determined from the maxima of the first derivatives of the melting curves in OriginPro2020 (OriginLab, Northampton, MA, USA). The ∆T m was calculated by subtraction of the T m of the protein sample with pure DMSO from the T m of the protein sample mixed with compound. Error propagation was used to average multiple runs for a compound. A compound was considered to be a hit if the shift in the ∆T m was at least 0.50°C [55].

[4] = target: T3, USP7asoc (Homo sapiens, UniProt Q93009, C300S/C315S/C334S/C478S/C488S/C510S); test: Intact protein MS (UHPLC-ESI-MS), covalent modification of USP7asoc; conditions: 24 h incubation at 20°C, protein-to-compound ratio 1:31.25
T3 construct: (208‐560, C300/315/334/448/478/510S); made in house
T3 sequence (Q93009 with tags, fused parts or gaps C300S/C315S/C334S/C478S/C488S/C510S): as the sequence (Q93009 with tags, fused parts or gaps C300S/C315S/C334S/C478S/C488S/C510S) above
Protocol: The DSF results described above were validated by UHPLC‐ESI‐MS to verify possible covalent binding through a corresponding mass shift. Intact protein MS is an important screening method in irreversible‐covalent hit identification and is especially suitable for covalent fragment‐based drug discovery (FBDD). It allows for the identification of covalent binders by detecting covalent protein‐compound adducts, thus making use of the stability of the covalent bond. USP7 was prepared in Tris buffer (25 mM Tris pH 8.0, 150 mM NaCl, 5 mM TCEP) with a protein‐to‐compound ratio of 1:31.25 and 5% (v/v) DMSO. The protein‐compound mixtures were all incubated at 20°C for 24 h on a rotating shaker. The analysis of intact protein mass was carried out using UHPLC‐ESI‐MS measurements, with data acquisition and data analysis as previously described.

Structure (SMILES)	∆T m ± SD USP7asoc ([1]; 30 min incubation at 20°C)	∆T m ± SD USP7asoc ([1]; 4 h incubation at 20°C)	∆T m ± SD USP7asoc ([1]; 24 h incubation at 20°C)	protein species in deconvoluted mass spectrum of USP7 [2]	∆T m ± SD USP7 ([3]; 30 min incubation at 20°C)	∆T m ± SD USP7 ([3]; 4 h incubation at 20°C) [°C]	∆T m ± SD USP7 ([3]; 24 h incubation at 20°C)	protein species in deconvoluted mass spectrum of USP7asoc [4]
O=[N+]([O-])c1ccc(Cl)nc1Nc1cc2c(-c3ccc4ccccc4c3)cccc2cn1 [8g, N‐(6‐Chloro‐3‐nitropyridin‐2‐yl)‐5‐(naphthalen‐2‐yl)isoquinolin‐3‐amine]	0.63 °C and 0.63 ± 0.07 °C	0.38 ± 0.08 °C	0.40 ± 0.17 °C	only unmodified USP7 and USP7asoc were detected	0.25 ± 0.12 °C	0.30 ± 0	0.25 ± 0.09 °C	only unmodified USP7 and USP7asoc were detected
O=[N+]([O-])c1ccc(Cl)nc1Nc1cc2c(-c3ccc(-c4cccnc4)cc3)cccc2cn1 [8h, N‐(6‐Chloro‐3‐nitropyridin‐2‐yl)‐5‐[4‐(pyridin‐3‐yl)phenyl]isoquinolin‐3‐amine]	0.15 ± 0 °C	0.35 ± 0.09 °C	0.28 ± 0.04 °C	unmodified USP7 and USP7asoc as the main peak	–0.25 ± 0.09 °C	0.00 ± 0	0.05 ± 0.09 °C	unmodified USP7 and USP7asoc as the main peak
O=[N+]([O-])c1ccc(Cl)nc1Nc1cc2c(-c3ccc(-c4ccncc4)cc3)cccc2cn1 [8i, N‐(6‐Chloro‐3‐nitropyridin‐2‐yl)‐5‐[4‐(pyridin‐4‐yl)phenyl]isoquinolin‐3‐amine]	0.10 ± 0.17 °C	–0.15 ± 0.15 °C	–0.15 ± 0.12 °C	unmodified USP7 and USP7asoc as the main peak	0.05 ± 0.09 °C		–0.03 ± 0.11 °C	unmodified USP7 and USP7asoc as the main peak
